Measurements taken from patent publication US4843087A (priority 1986, dated 1989).
Values after ≈ are worked out from the molar mass of the structure shown.

Columns and labels:
[1] = test system: human rhinovirus (HRV) serotypes; test: microbe, parasite or virus in culture; type: cell-based; conditions: for MIC50: read-out: Rhinovirus MIC50; for IC (MIC80 of serotype panel): read-out: Rhinovirus MIC80
[2] = test system: Polio 2; test: microbe, parasite or virus in culture; type: cell-based, poliovirus; conditions: Enterovirus C, HeLa, read-out: Polio 2 MIC

## COC(=O)CCC(=O)OCc1cc(CCCCCOc2c(Cl)cc(C3=NCCO3)cc2Cl)on1 [Example 148, 5-{5-[2,6-Dichloro-4-(4,5-dihydro-2-oxazolyl)phenoxy]pentyl}-3-isoxazolylmethyl methyl butanedioate]
[1]
  MIC50: 0.17 µg/mL (≈ 0.331 µM)
  IC (MIC80 of serotype panel): 0.45 µg/mL
[2]
  MIC: 8.5 µg/mL (≈ 16.6 µM)

## CN(C)Cc1cc(CCCCCCCOc2ccc(C3=NCCO3)cc2)on1 [Example 136(b), 5-{7-[4-(4,5-Dihydro-2-oxazolyl)phenoxy]heptyl}-3-(dimethylaminomethyl)isoxazole]
[1]
  MIC50: 0.88 µg/mL (≈ 2.28 µM)
  IC (MIC80 of serotype panel): 1.47 µg/mL
[2]
  MIC: 0.62 µg/mL (≈ 1.61 µM)

## Cc1cc(CCCCCCCOc2ccc(C3=NCCCO3)cc2)on1 [94(c), 5,6-Dihydro-2-{4-[7-(3-methyl-5-isoxazolyl)heptyloxy]phenyl}-4H-1,3-oxazine]
[1]
  MIC50: 1.06 µg/mL (≈ 2.97 µM)
  IC (MIC80 of serotype panel): 99 µg/mL
[2]
  MIC: 0.8 µg/mL (≈ 2.24 µM)

## Cc1cc(CCCCCOc2ccc(C3=NCCO3)c(C)c2C)on1 [Example 79, 5-{5-[4-(4,5-Dihydro-2-oxazolyl)-2,3-dimethylphenoxy]pentyl}-3-methylisoxazole]
[1]
  MIC50: 0.3 µg/mL (≈ 0.876 µM)
  IC (MIC80 of serotype panel): 0.7 µg/mL
[2]
  MIC: 2.3 µg/mL (≈ 6.72 µM)

## C=CCc1cc(C2=NCCO2)ccc1OCCCCCc1cc(C)no1 [Example 61, 5-{5-[4-(4,5-Dihydro-2-oxazolyl)-2-(2-propenyl)phenoxy]pentyl}-3-methylisoxazole]
[1]
  MIC50: 0.39 µg/mL (≈ 1.1 µM)
  IC (MIC80 of serotype panel): 0.75 µg/mL
[2]
  MIC: 0.54 µg/mL (≈ 1.52 µM)

## Cc1cc(CCCCCOc2ccc(C3=NCCO3)cc2F)on1 [Example 20, 5-{5-[4-(4,5-Dihydro-2-oxazolyl)-2-fluorophenoxy]pentyl}-3-methylisoxazole]
[1]
  MIC50: 0.38 µg/mL (≈ 1.14 µM)
  IC (MIC80 of serotype panel): 26.9 µg/mL
[2]
  MIC: 0.1 µg/mL (≈ 0.301 µM)

## Cc1cc(CCCCCOc2c(Cl)cc(C(=O)NCCCl)cc2Br)on1 [152(c), 3-Bromo-5-chloro-N-(2-chloroethyl)-4-{[5-(3-methyl-5-isoxazolyl)pentyl]oxy}benzamide]
[1]
  MIC50: 0.14 µg/mL (≈ 0.302 µM)
  IC (MIC80 of serotype panel): 0.6 µg/mL
[2]
  MIC: 2.1 µg/mL (≈ 4.52 µM)

## Cc1cc(CCCOCOCCOc2ccc(C3=NCCO3)cc2Cl)on1 [Example 82, 5-{3-[[2-[2-Chloro-4-(4,5-dihydro-2-oxazolyl)phenoxy]ethoxy]methoxy]propyl}-3-methylisoxazole]
[1]
  MIC50: 1.2 µg/mL (≈ 3.04 µM)
  IC (MIC80 of serotype panel): 5.4 µg/mL
[2]
  MIC: 2.9 µg/mL (≈ 7.34 µM)

## Cc1cc(CCCCCOc2c(Cl)cc(C3=NCCO3)cc2[N+](=O)[O-])on1 [153(d), 5-{5-[2-Chloro-4-(4,5-dihydro-2-oxazolyl)-6-nitrophenoxy]pentyl}-3-methylisoxazole]
[1]
  MIC50: 0.09 µg/mL (≈ 0.229 µM)
  IC (MIC80 of serotype panel): 0.18 µg/mL
[2]
  MIC: 0.4 µg/mL (≈ 1.02 µM)

## Cc1cc(CCCCCOc2ccc(-c3ncc(Cl)o3)cc2)on1 [Example 145, 5-{5-[4-(5-Chloro-2-oxazolyl)phenoxy]pentyl}-3-methylisoxazole]
[1]
  MIC50: 0.2 µg/mL (≈ 0.577 µM)
  IC (MIC80 of serotype panel): 0.29 µg/mL
[2]
  MIC: 0.033 µg/mL (≈ 0.0952 µM)

## Cc1cc(CCCCCOc2ccc(-c3ncco3)cc2)on1 [Example 88, 3-Methyl-5-{5-[4-(2-oxazolyl)phenoxy]pentyl}isoxazole]
[1]
  MIC50: 0.38 µg/mL (≈ 1.22 µM)
  IC (MIC80 of serotype panel): 25.2 µg/mL
[2]
  MIC: 0.025 µg/mL (≈ 0.08 µM)

## Cc1cc(CCCCCOc2ccc(C3=NCCCO3)cc2)on1 [Example 95, 5,6-Dihydro-2-{4-[5-(3-methyl-5-isoxazolyl)pentyloxy]phenyl}-4H-1,3-oxazine]
[1]
  MIC50: 1.65 µg/mL (≈ 5.02 µM)
  IC (MIC80 of serotype panel): 26.3 µg/mL
[2]
  MIC: 0.15 µg/mL (≈ 0.457 µM)

## Cc1cc(CCCCCOc2ccc(C3=NC(C)(C)CO3)cc2)on1 [Example 62, 5-{5-[4-(4,5-Dihydro-4,4-dimethyl-2-oxazolyl)phenoxy]pentyl}-3-methylisoxazole]
[1]
  MIC50: 1.5 µg/mL (≈ 4.38 µM)
  IC (MIC80 of serotype panel): 2.4 µg/mL
[2]
  MIC: 0.51 µg/mL (≈ 1.49 µM)

## Cc1cc(CCCCCCCOc2ccc(C3=NC(CO)CO3)cc2)on1 (stereo not drawn) [Example 33, 5-{7-[4-(4,5-Dihydro-4-hydroxymethyl-2-oxazolyl)phenoxy]heptyl}-3-methylisoxazole]
[1]
  MIC50: 51 µg/mL (≈ 137 µM)
  IC (MIC80 of serotype panel): 99 µg/mL
[2]
  MIC: 3 µg/mL (≈ 8.05 µM)

## Cc1cc(CCCCCOc2ccc(-c3cnco3)cc2)on1 [Example 96(b), 3-Methyl-5-{5[4-(5-oxazolyl)phenoxy]pentyl}isoxazole]
[1]
  MIC50: 1.4 µg/mL (≈ 4.48 µM)
  IC (MIC80 of serotype panel): 2.5 µg/mL
[2]
  MIC: 0.095 µg/mL (≈ 0.304 µM)

## Cc1cc(CCCCCOc2ccc(-c3nc(C)c(C)o3)cc2)on1 [89(d), 5-{5-[4-(4,5-Dimethyl-2-oxazolyl)phenoxy]pentyl}-3-methylisoxazole]
[1]
  MIC50: 0.19 µg/mL (≈ 0.558 µM)
  IC (MIC80 of serotype panel): 0.77 µg/mL
[2]
  MIC: 0.16 µg/mL (≈ 0.47 µM)

## Cc1cc(CCCCCCCOc2ccc(C3=NCCO3)cc2F)on1 [19(b), 5-{7-[4-(4,5-Dihydro-2-oxazolyl)-2-fluorophenoxy]heptyl}-3-methylisoxazole]
[1]
  MIC50: 0.8 µg/mL (≈ 2.22 µM)
  IC (MIC80 of serotype panel): 99 µg/mL
[2]
  MIC: 0.3 µg/mL (≈ 0.832 µM)

## Cc1cc(CCCCCOc2c(C)cc(C(=O)NCCCl)cc2Cl)on1 [154(b), 3-Chloro-N-(2-chloroethyl)-5-methyl-4 -{[5-(3-methyl-5-isoxazolyl)pentyl]oxy}benzamide]
[1]
  MIC50: 0.17 µg/mL (≈ 0.426 µM)
  IC (MIC80 of serotype panel): 0.63 µg/mL
[2]
  MIC: 1.13 µg/mL (≈ 2.83 µM)

## Cc1cc(CCCCCOc2c(Cl)cc(C3=NCCO3)cc2Br)on1 [152(d), 5-{5-[2-Bromo-6-chloro-4-(4,5-dihydro-2-oxazolyl)phenoxy]pentyl}-3-methylisoxazole]
[1]
  MIC50: 0.095 µg/mL (≈ 0.222 µM)
  IC (MIC80 of serotype panel): 0.23 µg/mL
[2]
  MIC: 0.97 µg/mL (≈ 2.27 µM)

## CCc1cc(C2=NCCO2)cc(C)c1OCCCCCc1cc(C)no1 [157(d), 5-{5-[4-(4,5-Dihydro-2-oxazolyl)-2-ethyl-6-methylphenoxy]pentyl}-3-methylisoxazole]
[1]
  MIC50: 1.25 µg/mL (≈ 3.51 µM)
  IC (MIC80 of serotype panel): 2.5 µg/mL
[2]
  MIC: 3.3 µg/mL (≈ 9.26 µM)

## Cc1cc(CCCCCOc2ccc(C3=NCCO3)cc2[N+](=O)[O-])on1 [Example 53, 5-{5-[4-(4,5-Dihydro-2-oxazolyl)-2-nitrophenoxy]pentyl}-3-methylisoxazole]
[1]
  MIC50: 0.087 µg/mL (≈ 0.242 µM)
  IC (MIC80 of serotype panel): 0.64 µg/mL
[2]
  MIC: 0.08 µg/mL (≈ 0.223 µM)

## COc1cc(C(=O)NCCCl)cc(OC)c1OCCCCCc1cc(C)no1 [158(b), N-(2-Chloroethyl)-3,5-dimethoxy-4-{[5-(3-methyl-5-isoxazolyl)pentyl]oxy}benzamide]
[1]
  MIC50: 1.73 µg/mL (≈ 4.21 µM)
  IC (MIC80 of serotype panel): 4.7 µg/mL
[2]
  MIC: 2 µg/mL (≈ 4.87 µM)

## Cc1cc(CCCCCSc2ccc(C3=NCCO3)cc2)on1 [103(c), 5-{5-[[4-(4,5-Dihydro-2-oxazolyl)phenyl]thio]pentyl}-3-methylisoxazole]
[1]
  MIC50: 0.57 µg/mL (≈ 1.72 µM)
  IC (MIC80 of serotype panel): 27.1 µg/mL
[2]
  MIC: 0.37 µg/mL (≈ 1.12 µM)

## Cc1cc(CCCCCOc2ccc(C3=NCCO3)cc2N)on1 [Example 49, 5-{5-[2-Amino-4-(4,5-dihydro-2-oxazoyl)phenoxy]pentyl}-3-methylisoxazole]
[1]
  MIC50: 1.1 µg/mL (≈ 3.34 µM)
  IC (MIC80 of serotype panel): 4.6 µg/mL
[2]
  MIC: 2 µg/mL (≈ 6.07 µM)

## Cc1cc(CCCCCOc2ccc(C3=NC(C)CO3)cc2)on1 (stereo not drawn) [Example 56, 5-{5-[4-(4,5-Dihydro-4-methyl-2-oxazolyl)phenoxy]pentyl}-3-methylisoxazole]
[1]
  MIC50: 0.164 µg/mL (≈ 0.499 µM)
  IC (MIC80 of serotype panel): 25.3 µg/mL
[2]
  MIC: 0.07 µg/mL (≈ 0.213 µM)

## Cc1cc(CCC#CCOc2c(Cl)cc(C3=NCCO3)cc2Cl)on1 [Example 151, 5-{5-[2,6-Dichloro-4-(4,5-dihydro-2-oxazolyl)phenoxy]-3-pentynyl}-3-methylisoxazole]
[1]
  MIC50: 0.2 µg/mL (≈ 0.527 µM)
  IC (MIC80 of serotype panel): 1.2 µg/mL
[2]
  MIC: 0.4 µg/mL (≈ 1.05 µM)

## Cc1cc(CC/C=C/COc2c(Cl)cc(C3=NCCO3)cc2Cl)on1 [Example 113, 5-{5-[2,6-Dichloro-4-(4,5-dihydro-2-oxazolyl)phenoxy]-3-pentenyl}-3-methylisoxazole (E-isomer)]
[1]
  MIC50: 0.09 µg/mL (≈ 0.236 µM)
  IC (MIC80 of serotype panel): 0.167 µg/mL
[2]
  MIC: 0.4 µg/mL (≈ 1.05 µM)

## Cc1cc(CCCCCOc2ccc(C3=NCCO3)c(O)c2)on1 [Example 52, 5-{5-[4-(4,5-Dihydro-2-oxazolyl)-3-hydroxyphenoxy]pentyl}-3-methylisoxazole]
[1]
  MIC50: 0.084 µg/mL (≈ 0.254 µM)
  IC (MIC80 of serotype panel): 1.9 µg/mL
[2]
  MIC: 0.003 µg/mL (≈ 0.00908 µM)

## Cc1cc(CCCCCOc2c(Cl)cc(C(=O)NCCCl)cc2Cl)on1 [162(c), 3,5-Dichloro-N-(2-chloroethyl)-4-{[5-(3-methyl-5-isoxazolyl)pentyl]oxy}benzamide]
[1]
  MIC50: 0.16 µg/mL (≈ 0.381 µM)
  IC (MIC80 of serotype panel): 0.28 µg/mL
[2]
  MIC: 0.48 µg/mL (≈ 1.14 µM)

## Cc1cc(COCCCCCOc2ccc(C3=NCCO3)cc2)on1 [Example 99, 5-{[[5-[4-(4,5-Dihydro-2-oxazolyl)phenoxy]pentyl]oxy]methyl}-3-methylisoxazole]
[1]
  MIC50: 1.3 µg/mL (≈ 3.77 µM)
  IC (MIC80 of serotype panel): 2.3 µg/mL
[2]
  MIC: 0.27 µg/mL (≈ 0.784 µM)

## Cc1cc(CCC=CCOc2ccc(C3=NCCO3)cc2Cl)on1 [Example 68, 5-{5-[2-Chloro-4-(4,5-dihydro-2-oxazolyl)phenoxy]-3-pentenyl}-3-methylisoxazole]
[1]
  MIC50: 0.4 µg/mL (≈ 1.15 µM)
  IC (MIC80 of serotype panel): 1 µg/mL
[2]
  MIC: 0.23 µg/mL (≈ 0.663 µM)

## Cc1cc(CCCCCOc2ccc(C3=NCCO3)c(C)c2)on1 [Example 51, 5-{5-[4-(4,5-Dihydro-2oxazolyl)-3-methylphenoxy]pentyl}-3-methylisoxazole]
[1]
  MIC50: 0.56 µg/mL (≈ 1.71 µM)
  IC (MIC80 of serotype panel): 1.6 µg/mL
[2]
  MIC: 0.045 µg/mL (≈ 0.137 µM)

## Cc1cc(CCCCCCOc2ccc(C3=NCCO3)cc2Cl)on1 [Example 16, 5-{-[26-Chloro-4-(4,5-dihydro-2-oxazolyl)phenoxy]hexyl}-3-methylisoxazole]
[1]
  MIC50: 0.08 µg/mL (≈ 0.22 µM)
  IC (MIC80 of serotype panel): 0.43 µg/mL
[2]
  MIC: 0.13 µg/mL (≈ 0.358 µM)

## CCOC(=O)c1cc(C2=NCCO2)ccc1OCCCCCc1cc(C)no1 [Example 146, 5-{5-[2-Ethoxycarbonyl-4-(4,5-dihydro-2-oxazolyl)phenoxy]pentyl}-3-methylisoxazole]
[1]
  MIC50: 0.29 µg/mL (≈ 0.75 µM)
  IC (MIC80 of serotype panel): 0.55 µg/mL
[2]
  MIC: 4.2 µg/mL (≈ 10.9 µM)

## Cc1cc(CCCCCOc2c(Cl)cc(C(=O)NCCCl)cc2[N+](=O)[O-])on1 [153(c), 3-Chloro-N-(2-chloroethyl)-4-{[5-(3-methyl-5-isoxazolyl)pentyl]oxy}-5-nitrobenzamide]
[1]
  MIC50: 0.08 µg/mL (≈ 0.186 µM)
  IC (MIC80 of serotype panel): 0.23 µg/mL
[2]
  MIC: 0.86 µg/mL (≈ 2 µM)

## Cc1noc(CCCCCCCOc2ccc(C3=NCCO3)cc2)c1CCl [Example 35, 4-Chloromethyl-5-{7-[4-(4,5-dihydro-2-oxazolyl)phenoxy]heptyl}-3-methylisoxazole]
[1]
  MIC50: 1.39 µg/mL (≈ 3.54 µM)
  IC (MIC80 of serotype panel): 1.8 µg/mL
[2]
  MIC: 0.05 µg/mL (≈ 0.128 µM)
